Test results: patent US11633459B2, “GIP derivatives and uses thereof” (priority 2018, dated 2023)
*1 amine or outer side, *2 acyl side, *3 side chain or, on linkers, in order; H or OH if unused. Where a SMILES comes first, the peptide text is derived from it. Where no end group is shown, it is not given here. Side-chain parts run from the residue outwards. [ ]: non-standard residue; d: D form. The star is where a group is joined. X1 = O=C(O)CCCCCCCCCCCCCCCCCCC(=O)NCC1CCC(C(=O)*)CC1; C18 diacid = O=C(O)CCCCCCCCCCCCCCCCC(=O)*; γGlu = O=C(O)[C@H](CCC(=O)[*:2])N[*:1]; Nle = CCCC[C@H](N)C(=O)O; Aib = CC(C)(N)C(=O)O

How the values were obtained:
[1] = Pharmacokinetic study in minipigs, terminal half-life after i.v. administration; conditions: female, Göttingen, minipig, plasma, iv, 5 nmol/kg
Protocol: Pharmacokinetic Study in Minipigs
The purpose of this study is to determine the half-life in vivo of the derivatives of the present invention after i.v. administration to minipigs, i.e. the prolongation of their time in the body and thereby their time of action. This is done in a pharmacokinetic (PK) study, where the terminal half-life of the derivative in question is determined. By terminal half-life is generally meant the period of time it takes to halve a certain plasma concentration, measured after the initial distribution phase.
Female Göttingen minipigs were obtained from Ellegaard Göttingen Minipigs (Dalmose, Denmark) approximately 7-14 months of age and weighing from approximately 16-35 kg were used in the studies. The minipigs were housed individually and fed restrictedly once daily with SDS minipig diet (Special Diets Services, Essex, UK).
After at 3 weeks of acclimatisation two permanent central venous catheters were implanted in vena cava caudalis in each animal. The animals were allowed 1 week recovery after the surgery, and were then used for repeated pharmacokinetic studies with a suitable wash-out period between successive derivative dosing.
Blood samples (for example 0.8 ml) were collected in EDTA buffer (8 mM) and then centrifuged at 4° C. and 1942G for 10 minutes.
Individual plasma concentration-time profiles were analysed by a non-compartmental model in Phoenix WinNonLin ver. […] (Pharsight Inc., Mountain View, Calif., USA), and the resulting terminal half-lives (harmonic mean) determined.

[2] = target: T1, human GIP receptor (Homo sapiens, UniProt P48546); test: In vitro potency, CRE luciferase reporter gene assay, whole BHK cells expressing human GIP receptor; assay type: cell-based; conditions: 0.2% HSA
T1 construct: expressed in transfected cells; host or cells: BHK cells (parent line BHKTS13), clone BHK CRE luc2P hGIPR clone #5
T1 sequence (P48546 22-466): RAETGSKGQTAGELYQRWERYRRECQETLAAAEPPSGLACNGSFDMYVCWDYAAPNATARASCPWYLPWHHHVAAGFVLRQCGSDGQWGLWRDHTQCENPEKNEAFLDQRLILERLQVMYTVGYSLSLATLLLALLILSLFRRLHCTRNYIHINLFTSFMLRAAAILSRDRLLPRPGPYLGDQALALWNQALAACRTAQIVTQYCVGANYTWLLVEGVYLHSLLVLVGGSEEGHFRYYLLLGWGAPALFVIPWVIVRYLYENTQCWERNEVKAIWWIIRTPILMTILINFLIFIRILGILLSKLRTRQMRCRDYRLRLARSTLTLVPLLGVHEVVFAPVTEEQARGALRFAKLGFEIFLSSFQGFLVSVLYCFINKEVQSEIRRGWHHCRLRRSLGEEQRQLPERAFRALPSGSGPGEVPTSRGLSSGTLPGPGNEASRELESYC
Protocol: In Vitro Potency (CRE Luciferase; Whole Cells)
The in vitro potency is the measure of human GIP, GLP-1 or glucagon receptor activation, respectively, in a whole cell assay.
In vitro potency was determined by measuring the response of the human GIP, GLP-1 or glucagon receptor in a reporter gene assay in individual cell lines. […] When the respective receptor is activated it results in the production of cAMP, which in turn results in the luciferase protein being expressed. When assay incubation is completed the luciferase substrate (luciferin) is added and the enzyme converts luciferin to oxyluciferin to produce bioluminescence. The luminescence is measured as the readout for the assay.
The cells were derived from a clone containing the CRE luciferase element and were established by further transfection with the respective receptor to obtain the current clone.
The cells were cultured at 5% CO2 in Cell Culture Medium. They were aliquoted and stored in liquid nitrogen. The cells were kept in passage and were seeded out the day before each assay.
The Assay Buffer consisted of 1% ovalbumin and 0.1% Pluronic F-68 in Assay Medium with the addition of human serum albumin at twice the indicated concentrations.
1) Cells were plated at 5000 cells/well and incubated overnight.
2) Cells were washed three times in PBS.
3) Assay Medium (50 μl aliquot) with or without serum albumin was added to each well in the assay plate.
4) Stocks of the test compounds and reference compounds were diluted to a concentration of 0.2 μM in Assay Buffer. […] 8) The cells were washed three times with PBS plus some liquid in each well. 9) A 100 μl aliquot of steadylite plus reagent was added to each well of the assay plate (reagent was light sensitive). 10) Each assay plate was covered with aluminum foil to protect it from light and shaken for 30 min at room temperature. 11) Each assay plate was read in a microtiter plate reader. Calculations and Results
The data from the microtiter plate reader was transferred to GraphPad Prism software. The software performs a non-linear regression (log(agonist) vs response).
A minimum of two replicates was measured for each sample. The reported values are averages of the replicates.

| Compound | half-life [1] [h] | EC50 [2] [nM] |
| --- | --- | --- |
| CCCC[C@H](NC(=O)[C@H](C)NC(=O)[C@@H](NC(=O)[C@H](CO)NC(=O)[C@H](Cc1ccc(O)cc1)NC(=O)[C@H](CC(=O)O)NC(=O)[C@H](CO)NC(=O)[C@@H](NC(=O)[C@H](Cc1ccccc1)NC(=O)[C@@H](NC(=O)CNC(=O)[C@H](CCC(=O)O)NC(=O)[C@H](C)NC(=O)[C@@H](Cc1ccc(O)cc1)NC(C)=O)[C@@H](C)O)[C@@H](C)CC)[C@@H](C)CC)C(=O)N[C@@H](CC(=O)O)C(=O)N[C@@H](CCCCN)C(=O)N[C@H](C(=O)N[C@@H](CCCNC(=N)N)C(=O)N[C@@H](CCC(N)=O)C(=O)N[C@@H](CCC(N)=O)C(=O)N[C@@H](CC(=O)O)C(=O)N[C@@H](Cc1ccccc1)C(=O)N[C@H](C(=O)N[C@@H](CCCCNC(=O)CC[C@H](NC(=O)CC[C@H](NC(=O)CC[C@H](NC(=O)C1CCC(CNC(=O)CCCCCCCCCCCCCCCCCCC(=O)O)CC1)C(=O)O)C(=O)O)C(=O)O)C(=O)N[C@@H](Cc1c[nH]c2ccccc12)C(=O)N[C@@H](CC(C)C)C(=O)N[C@@H](CC(C)C)C(=O)N[C@@H](C)C(=O)N[C@@H](CCC(N)=O)C(=O)N[C@@H](CCCCN)C(=O)NCC(=O)O)C(C)C)[C@@H](C)CC (stereo partly drawn) [Compound 8, N{1}-acetyl,N{Epsilon-24}-[(4S)-4-carboxy-4-[[(4S)-4-carboxy-4-[[(4S)-4-carboxy-4-[[4-[(19-carboxynonadecanoylamino)methyl]cyclohexanecarbonyl]amino]-butanoyl]amino]butanoyl]amino]butanoyl]-[D-Tyr1,Nle14,Arg18,Lys24]-hGIP(1-31)] | 106 | – |
| CCCC[C@H](NC(=O)[C@H](C)NC(=O)[C@@H](NC(=O)[C@H](CO)NC(=O)[C@H](Cc1ccc(O)cc1)NC(=O)[C@H](CC(=O)O)NC(=O)[C@H](CO)NC(=O)[C@@H](NC(=O)[C@H](Cc1ccccc1)NC(=O)[C@@H](NC(=O)CNC(=O)[C@H](CCC(=O)O)NC(=O)C(C)(C)NC(=O)[C@@H](N)Cc1ccc(O)cc1)[C@@H](C)O)[C@@H](C)CC)[C@@H](C)CC)C(=O)N[C@@H](CC(=O)O)C(=O)N[C@@H](CCCCN)C(=O)N[C@H](C(=O)N[C@@H](CCCNC(=N)N)C(=O)N[C@@H](CCC(N)=O)C(=O)N[C@@H](CCC(N)=O)C(=O)N[C@@H](CC(=O)O)C(=O)N[C@@H](Cc1ccccc1)C(=O)N[C@H](C(=O)N[C@@H](CCCCNC(=O)CC[C@H](NC(=O)CC[C@H](NC(=O)CC[C@H](NC(=O)C1CCC(CNC(=O)CCCCCCCCCCCCCCCCCCC(=O)O)CC1)C(=O)O)C(=O)O)C(=O)O)C(=O)N[C@@H](Cc1c[nH]c2ccccc12)C(=O)N[C@@H](CC(C)C)C(=O)N[C@@H](CC(C)C)C(=O)N[C@@H](C)C(=O)N[C@@H](CCC(N)=O)C(=O)N[C@@H](CCCCN)C(=O)N1CCC[C@H]1C(N)=O)C(C)C)[C@@H](C)CC (stereo partly drawn) [Compound 26, N{Epsilon-24}-[(4S)-4-carboxy-4-[[(4S)-4-carboxy-4-[[(4S)-4-carboxy-4-[[4-[(19-carboxynonadecanoylamino)methyl]cyclohexanecarbonyl]amino]butanoyl]amino]-butanoyl]amino]butanoyl]-[Aib2,Nle14,Arg18,Lys24,Pro31]-hGIP(1-31) amide] | 109 | – |
| CCCC[C@H](NC(=O)[C@H](C)NC(=O)[C@@H](NC(=O)[C@H](CO)NC(=O)[C@H](Cc1ccc(O)cc1)NC(=O)[C@H](CC(=O)O)NC(=O)[C@H](CO)NC(=O)[C@@H](NC(=O)[C@H](Cc1ccccc1)NC(=O)[C@@H](NC(=O)CNC(=O)[C@H](CCC(=O)O)NC(=O)C(C)(C)NC(=O)[C@@H](N)Cc1ccc(O)cc1)[C@@H](C)O)[C@@H](C)CC)[C@@H](C)CC)C(=O)N[C@@H](CC(=O)O)C(=O)N[C@@H](CCCCN)C(=O)N[C@H](C(=O)N[C@@H](Cc1c[nH]cn1)C(=O)N[C@@H](CCC(N)=O)C(=O)N[C@@H](CCC(N)=O)C(=O)N[C@@H](CC(=O)O)C(=O)N[C@@H](Cc1ccccc1)C(=O)N[C@H](C(=O)N[C@@H](CCCCNC(=O)CC[C@H](NC(=O)CC[C@H](NC(=O)CC[C@H](NC(=O)C1CCC(CNC(=O)CCCCCCCCCCCCCCCCCCC(=O)O)CC1)C(=O)O)C(=O)O)C(=O)O)C(=O)N[C@@H](Cc1c[nH]c2ccccc12)C(=O)N[C@@H](CC(C)C)C(=O)N[C@@H](CC(C)C)C(=O)N[C@@H](C)C(=O)N[C@@H](CCC(N)=O)C(=O)N[C@@H](CCCCN)C(=O)N1CCC[C@H]1C(N)=O)C(C)C)[C@@H](C)CC (stereo partly drawn) [Compound 27, N{Epsilon-24}-[(4S)-4-carboxy-4-[[(4S)-4-carboxy-4-[[(4S)-4-carboxy-4-[[4-[(19-carboxynonadecanoylamino)methyl]cyclohexanecarbonyl]amino]butanoyl]amino]-butanoyl]amino]butanoyl]-[Aib2,Nle14,Lys24,Pro31]-hGIP(1-31) amide] (H-Y[Aib]EGTFISDYSIA[Nle]DKIHQQDFVK([γGlu-γGlu-γGlu-X1])WLLAQKP-NH2) | 147 | – |
| CCCC[C@H](NC(=O)[C@H](C)NC(=O)[C@@H](NC(=O)[C@H](CO)NC(=O)[C@H](Cc1ccc(O)cc1)NC(=O)[C@H](CC(=O)O)NC(=O)[C@H](CO)NC(=O)[C@@H](NC(=O)[C@H](Cc1ccccc1)NC(=O)[C@@H](NC(=O)CNC(=O)[C@H](CCC(=O)O)NC(=O)[C@H](C)NC(=O)[C@@H](Cc1ccc(O)cc1)NC(C)=O)[C@@H](C)O)[C@@H](C)CC)[C@@H](C)CC)C(=O)N[C@@H](CC(=O)O)C(=O)N[C@@H](CCCCN)C(=O)N[C@H](C(=O)N[C@@H](CCCNC(=N)N)C(=O)N[C@@H](CCC(N)=O)C(=O)N[C@@H](CCC(N)=O)C(=O)N[C@@H](CC(=O)O)C(=O)N[C@@H](Cc1ccccc1)C(=O)N[C@H](C(=O)N[C@@H](CCCCNC(=O)CC[C@H](NC(=O)CC[C@H](NC(=O)CC[C@H](NC(=O)C1CCC(CNC(=O)CCCCCCCCCCCCCCCCCCC(=O)O)CC1)C(=O)O)C(=O)O)C(=O)O)C(=O)N[C@@H](Cc1c[nH]c2ccccc12)C(=O)N[C@@H](CC(C)C)C(=O)N[C@@H](CC(C)C)C(=O)N[C@@H](C)C(=O)N[C@@H](CCC(N)=O)C(=O)N[C@@H](CCCCN)C(=O)N1CCC[C@H]1C(N)=O)C(C)C)[C@@H](C)CC (stereo partly drawn) [Compound 28, N{1}-acetyl,N{Epsilon-24}-[(4S)-4-carboxy-4-[[(4S)-4-carboxy-4-[[(4S)-4-carboxy-4-[[4-[(19-carboxynonadecanoylamino)methyl]cyclohexanecarbonyl]amino]butanoyl]-amino]butanoyl]amino]butanoyl]-[D-Tyr1,Nle14,Arg18,Lys24,Pro31]-hGIP(1-31) amide] (Ac-[dY]AEGTFISDYSIA[Nle]DKIRQQDFVK([γGlu-γGlu-γGlu-X1])WLLAQKP-NH2) | 104 | – |
| H-Y[Aib]EGTFISDYSIA[Nle]DKIHQQDFVK([γGlu-γGlu-γGlu-C18 diacid])WLLAQKGKENDWKHNITQ [Compound 33, N{Epsilon-24}-[(4S)-4-carboxy-4-[[(4S)-4-carboxy-4-[[(4S)-4-carboxy-4-(17-carboxyheptadecanoylamino)butanoyl]amino]butanoyl]amino]butanoyl]-[Aib2,Nle14,Lys24,Glu33]-hGIP] | – | 0.0213 |
